Test results reported in PubChem BioAssay AID1421 (Emory University Molecular Libraries Screening Center, 2008).
Several values for one entry are separate records, joined by “and”; a condition that tells them apart may be missing. Equal entries are not always repeated. Activity calls are given as the source filed them. How the calls were made is not given here.

biological target: Prostaglandin E2 receptor EP2 subtype (Homo sapiens) (UniProt P43116); assay: compounds shifting PGE2 potency at EP2 – cell-based, human EP2, PGE2 EC50 shift, dose response (AID 1421); settings: EP2-expressing cells, PGE2 EC50 shift by compound
Sequence (P43116 whole entry, looked up): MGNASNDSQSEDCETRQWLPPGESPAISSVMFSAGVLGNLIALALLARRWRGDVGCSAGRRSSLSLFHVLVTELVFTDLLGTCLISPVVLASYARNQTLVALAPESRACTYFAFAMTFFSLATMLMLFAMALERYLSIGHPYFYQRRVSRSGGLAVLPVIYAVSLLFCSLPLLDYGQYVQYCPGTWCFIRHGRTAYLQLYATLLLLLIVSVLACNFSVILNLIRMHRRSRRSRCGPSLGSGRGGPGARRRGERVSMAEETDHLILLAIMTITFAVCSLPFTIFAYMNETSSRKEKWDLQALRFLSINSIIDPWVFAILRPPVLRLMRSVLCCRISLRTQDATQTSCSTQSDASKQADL

SMILES | outcome
CCc1nc(N2CCCCC2)c2oc3ccccc3c2n1 | active
COc1ccc(S(=O)(=O)N2c3cc(C)ccc3OCC2C(C)(C)C)cc1 (centres undefined) | active
CC(C)OC(=O)c1c(NC(=O)c2ccco2)sc2c1CCCCC2 | active
Cc1ccccc1CN(C)CC(=O)Nc1ccccc1Oc1ccccc1 | active
CC(C)C1COC(c2cccn2Cc2ccccc2Cl)=N1 (centres undefined) | active

Results, then the molecule that gave them:

outcome | SMILES
active | CCC(C)N(C)C(=O)c1cc2ccccc2c(-c2ccccc2Cl)n1 (centres undefined)
active | Cc1ccc(CSc2ncnc3c2cnn3Cc2ccccc2)cc1C

same assay, conditions: EP2-expressing cells, PGE2 EC50 shift by compound; measured here: PGE2 EC50 at 6.7 uM compound

SMILES | PGE2 EC50 with compound
CCCCOc1ccccc1NC(=O)c1scc2c1OCCO2 | 0.32 nM
S=c1[nH]nc(CSc2nc3ccccc3s2)n1Cc1ccccc1 | 0.72 nM
CSc1ncnc2sc(C)c(C)c12 | 1.22 nM
CC[C@@H]1Cc2cc(O)ccc2C2=C1c1ccc(O)cc1C[C@H]2CC | 0.3 nM
Clc1ccc(-c2ccc(/C=N/Nc3cc(N4CCOCC4)nc(N4CCOCC4)n3)o2)cc1 | 2.85 nM
CC(=O)CSc1ncnc2sc3c(c12)CCC(C)C3 (centres undefined) | 1.75 nM
COc1ccc(N=N/C(=C\O)C(=O)c2cccs2)cc1 | 1.42 nM
CC(C)CNC(=O)C(=O)NNC(=O)c1ccco1 | 2.49 nM
COc1cc(O)c2c(=O)cc(C)oc2c1CC=C(C)C | 2.64 nM
O=c1c2c(nc3n1CCCCC3)-c1ccccc1CC21CCCCC1 | 1.25 nM
CCOC(=O)c1c(N)sc2c1CCC(CC)C2 (centres undefined) | 1.5 nM
C/C=C/Cn1c(SCc2ccc(C)cc2)nc2c1c(=O)[nH]c(=O)n2C | 0.78 nM
COc1ccc(C2CC(C(F)(F)F)n3nc(C(N)=O)c(Cl)c3N2)cc1OC (centres undefined) | 0.71 nM
N#CCSc1nc2sc3c(c2c(=O)n1C1CCCCC1)CCCC3 | 0.76 nM
Cc1cccc(/N=C/c2c(O)ccc3oc4c(c23)CCCC4)n1 | 1.04 nM
C=CCC(NCc1ccccc1)c1ccc(Cl)cc1 (centres undefined) | 1.14 nM
Cc1cccc(C)c1N1CCN(c2ccc3nnc(C(F)(F)F)n3n2)CC1 | 0.52 nM
CCSc1nc2c(c(=O)[nH]c(=O)n2C)n1Cc1ccc(Cl)cc1 | 1.24 nM
CCOC(=O)C1=C(CC)OC(N)=C(C#N)C1c1ccsc1 (centres undefined) | 1.33 nM
CCc1nc(N2CCCCC2)c2oc3ccccc3c2n1 | 0.8 nM

SMILES | PGE2 EC50 with compound
COCCCN(C(=O)c1ccco1)c1nc(-c2cc(OC)ccc2OC)cs1 | 0.9 nM
CCOP(=O)(OCC)c1nc(-c2ccccc2)oc1NCc1ccccc1 | 1.04 nM
N#Cc1c(NC(=O)CSc2n[nH]c(Cc3ccccc3)n2)oc(-c2ccccc2)c1-c1ccccc1 | 1.4 nM
COc1ccc(S(=O)(=O)N2c3cc(C)ccc3OCC2C(C)(C)C)cc1 (centres undefined) | 0.75 nM
CC(C)OC(=O)c1c(NC(=O)c2ccco2)sc2c1CCCCC2 | 0.74 nM
CC(=O)CSc1nc(-c2cccs2)c(C#N)c(=O)[nH]1 | 2.81 nM
Cc1ccccc1CN(C)CC(=O)Nc1ccccc1Oc1ccccc1 | 1.12 nM
Cc1cc(C(=O)NCC(c2ccco2)N(C)C)no1 (centres undefined) | 2.55 nM
CCOC1(OCC)C(c2ccc(N)cc2)C(C#N)(C#N)C1(OCC)OCC (centres undefined) | 0.31 nM
CC(C)C1COC(c2cccn2Cc2ccccc2Cl)=N1 (centres undefined) | 0.95 nM
Cc1ccc(-c2csc(N(CC3CCCO3)C(=O)c3ccco3)n2)cc1 (centres undefined) | 0.87 nM
CCc1nc(N2CCC(C)CC2)c2oc3ccccc3c2n1 | 1.23 nM
C[N+]1(C)CCOC(O)(c2ccc(-c3ccc(C4(O)C[N+](C)(C)CCO4)cc3)cc2)C1 (centres undefined) | 0.14 nM
CC1CCCN(C(=O)CSc2cnc3ccccc3n2)C1 (centres undefined) | 1.26 nM
COc1ccc(-c2cc(C(F)(F)F)nc(NC3CCCC3)n2)cc1OC | 0.7 nM
C=CCSc1nccc(-c2cc(Cl)sc2Cl)n1 | 1.07 nM
CCOC(=O)c1c(NC(=O)CSC(=S)N(C)C)sc(C)c1C | 0.86 nM
O=C(CSc1nnc(Cc2ccccc2)n1Cc1ccco1)NC12CC3CC(CC(C3)C1)C2 | 1.73 nM
O=S(=O)(c1cccs1)N1CN(Cc2cccs2)c2nc3ccccc3nc21 | 1.64 nM

Further lines, results first:

PGE2 EC50 with compound | SMILES
2.69 nM | CCOC(=O)COc1cc(Br)c(/C=N/Nc2ccccc2)cc1OC
2.48 nM | C=CCOc1nc(-c2ccncc2)nc2ccccc12
1.09 nM | O=C(CSc1nc2cc(Cl)ccc2s1)N1CCCc2ccccc21
0.25 nM | Cc1c(NC(=S)NC(=O)c2ccc(-c3ccc(Cl)cc3)o2)cccc1C(=O)O
1.51 nM | CCOc1ccccc1-c1nc2c(C(C)(C)C)nn(C)c2c(=O)[nH]1
2.55 nM | Cc1scc(-c2n[nH]c(=S)n2Cc2ccccc2)c1C
1.01 nM | COc1ccc(C(=O)Nc2ccccc2N2CCCCC2)cc1[N+](=O)[O-]
1.49 nM | COC(=O)c1c(NC(=O)c2ccccc2N(C)S(=O)(=O)c2ccccc2)sc2c1CCCC2
0.97 nM | CC(C)c1nc(N2CCN(C(=O)c3ccccc3)CC2)c(C#N)c2c1COC(C)(C)C2
0.87 nM | CCCOc1ccc(/C=N/Nc2ccc(C(=O)O)cc2)c(OCCC)c1
1.3 nM | O=C(c1cc2sccc2n1Cc1ccccc1)N1CCCc2ccccc21
2.43 nM | C=CCn1c(=O)c(C(=O)NCCc2ccccc2)c(O)c2ccccc21
0.62 nM | Nc1c(C(=O)Nc2ccccc2F)sc2nc(Cc3ccccc3)cc(C(F)(F)F)c12
1.2 nM | C=CCCC1(C)C(=O)N(c2ccccc2)c2ccccc21 (centres undefined)
1.01 nM | Cc1ccc(C(=O)C2=C(O)C(=O)N(CCCn3ccnc3)C2c2ccc(OC(C)C)cc2)o1 (centres undefined)
6.72 nM | Cc1cccc(C(=O)Nc2cccc(OCC(=O)O)c2)c1
1.38 nM | S=C1NCCc2ccc(Cl)cc2C1c1ccccc1 (centres undefined)
1.17 nM | CCn1c(=NC(=O)c2ccc(S(=O)(=O)N(C)C)cc2)sc2cccc(OC)c21
1.15 nM | COc1ccc(-c2nnc(N3CCC(C)CC3)c3ccccc23)cc1

PGE2 EC50 with compound | SMILES
0.93 nM and 1.18 nM | CCC(C)N(C)C(=O)c1cc2ccccc2c(-c2ccccc2Cl)n1 (centres undefined)
1.63 nM | Fc1ccc(-c2cc(-c3ccccc3)nc(-n3cccn3)n2)cc1
2.39 nM | Nc1ccc(SC(F)(F)F)cc1C(=O)c1ccccc1
2.8 nM | O=c1c2ccccc2c(-c2ccccc2)nn1Cc1ccccc1
2.5 nM | O=C(Nc1ccccc1Br)c1ccccc1-c1ccccc1
1.08 nM | Cc1ccc(CSc2ncnc3c2cnn3Cc2ccccc2)cc1C
1.2 nM | O=C(Cc1ccc(Br)cc1)Nc1ccccc1Sc1ccccc1
1.08 nM | CCCCn1c(C)cc(C)c(S(=O)(=O)c2ccccc2C)c1=O
1.07 nM | CCCC(=O)Nc1ccccc1Sc1ncnc2scc(-c3ccccc3)c12
0.64 nM | Cc1ccc(C(=O)c2cnc3ccccc3c2-c2ccccc2)cc1
1.17 nM | COc1cccc(OCC(=O)Nc2ccccc2-c2ccccc2)c1
2.55 nM | Cc1nc2ccccc2c(-c2ccccc2)c1C(=O)c1ccccc1
2.56 nM | CCOC(=O)c1c(N)sc(-c2ccccc2)c1C
1.32 nM | CC1(c2cc([N+](=O)[O-])cc([N+](=O)[O-])c2)CC(C)(C)N(C(=O)c2ccccc2)c2ccccc21 (centres undefined)
1.35 nM | Oc1ccc2ccccc2c1Cc1c(O)ccc2ccccc12
1.45 nM | Cc1ccc(-c2cc3ccccc3nc2N2CCOCC2)cc1
1.02 nM | CCCn1c(Nc2nc3ccccc3n2C)nc2ccccc21
0.83 nM | O=C(O)c1cc(C(=O)O)cc(N2C(=O)c3ccccc3C2=O)c1
3.08 nM | COc1cc2ccccc2cc1C(=O)NC(=S)Nc1cc(C(=O)O)ccc1C
